Assay results from PubChem BioAssay (NCI).
“And” between values parts separate entries of the source, which are not always exact repeats. Equal entries are not always repeated.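 Compound exposure: 48 hours, 5 concentrations, 96-well plates. At the GI50, growth is halved. TGI marks complete inhibition of growth.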

Legend:
Experiment in all cases: NCI anticancer screen, dose series, 48 h
ACHN renal = system: ACHN renal
U251 CNS = system: U251 CNS
M14 melanoma = system: M14 melanoma
HL-60(TB) leukemia = system: HL-60(TB) leukemia
SF-539 CNS = system: SF-539 CNS
HOP-62 NSCLC = system: HOP-62 NSCLC
SK-MEL-28 melanoma = system: SK-MEL-28 melanoma
NCI/ADR-RES ovarian = system: NCI/ADR-RES ovarian
MDA-N = system: MDA-N
PC-3 prostate = system: PC-3 prostate
T-47D breast = system: T-47D breast

Structure (SMILES)	TGI (ACHN renal)	TGI (U251 CNS)	TGI (M14 melanoma)	TGI (HL-60(TB) leukemia)	TGI (SF-539 CNS)	TGI (HOP-62 NSCLC) [µM]	TGI (SK-MEL-28 melanoma)	TGI (NCI/ADR-RES ovarian)	TGI (MDA-N)	TGI (PC-3 prostate)	TGI (T-47D breast) [µM]	GI50 (M14 melanoma) [µM]	GI50 (SK-MEL-28 melanoma) [µM]
COCC(C)(C)N=CN1Cc2cc3ccccc3nc2C1	> 100 µM	> 100 µM	> 100 µM	> 100 µM	> 100 µM	> 100	> 100 µM	–	–	–	–	–	–
Clc1ccc(Nc2nnc(CNc3ccc(-c4nnc(Nc5ccc(Cl)cc5)s4)cc3)s2)cc1	> 100 µM	> 100 µM	58.4 µM	–	–	> 100	> 100 µM	> 100 µM	58.1 µM	> 100 µM	–	–	–
O=[N+]([O-])c1ccc(SN=S=NSc2cccc(SN=S=NSc3ccc([N+](=O)[O-])cc3)c2)cc1	> 100 µM	32 µM	> 100 µM	83.7 µM	–	> 100	> 100 µM	> 100 µM	98.8 µM	40.1 µM	38.9	–	–
CC(C)/C=C1\CCC(CN(C)C)C1=O (centres undefined)	12.5 µM	32.7 µM	5.52 µM	4.55 µM	19.8 µM	46.3	5.07 µM	10.6 µM	7.78 µM	14.5 µM	–	–	–
O=C(CNc1ccccn1)Nn1cnc2ccc(S(=O)(=O)Nc3ccccn3)cc2c1=O	> 100 µM	> 100 µM	> 100 µM	> 100 µM	> 100 µM	> 100	> 100 µM	> 100 µM	> 100 µM	> 100 µM	–	–	–
O=c1[nH]nc(Cc2ccccc2)n1/N=C/c1cccs1	> 100 µM	> 100 µM	> 100 µM	–	> 100 µM	> 100	> 100 µM	> 100 µM	> 100 µM	> 100 µM	> 100	–	–
CC(=O)Nc1[nH]n(C)c(=O)c1-c1nnc(C)s1	> 100 µM	> 100 µM	> 100 µM	> 100 µM	> 100 µM	> 100	> 100 µM	–	–	–	–	–	–
CC1(C)OC(=O)C(C)(C)C(=O)O1	> 100 µM	> 100 µM	> 100 µM	–	> 100 µM	> 100	> 100 µM	> 100 µM	> 100 µM	> 100 µM	> 100	–	–
CC(C)(C)N=CN1C=Cc2nc3ccccc3cc2C1	> 100 µM	> 100 µM	> 100 µM	> 100 µM	> 100 µM	> 100	> 100 µM	–	–	–	–	–	–
O=C1[C@@H]2C(c3ccc(Br)cc3)=NO[C@@H]2C(=O)N1c1ccc(Cc2ccc(N3C(=O)[C@H]4C(c5ccc(Br)cc5)=NO[C@H]4C3=O)cc2)cc1	> 40 µM	> 3.48 µM	> 40 µM	> 3.48 µM	> 3.48 µM	> 3.48	> 40 µM	–	–	–	–	> 40	> 40
COC(=O)C(=O)C(C(=O)OC)C(=O)C(=O)Nc1c(C)cccc1C (centres undefined)	> 100 µM	> 100 µM	> 100 µM	> 100 µM	> 100 µM	> 100	> 100 µM	–	–	–	–	–	–
Cn1c(=O)c2[nH]c(N=O)nc2n(C)c1=O	–	> 100 µM	> 100 µM	> 100 µM	> 100 µM	> 100	> 100 µM	> 100 µM	> 100 µM	> 100 µM	> 100	–	–
COc1cc2ccc3c4ccccc4cnc3c2cc1OC	> 100 µM	> 100 µM	> 100 µM	> 100 µM	> 100 µM	> 100	> 100 µM	–	–	–	–	–	–
CCOC1OC(CO)C(O)CC1n1ccc(=O)[nH]c1=O (centres undefined)	> 100 µM	> 100 µM	> 100 µM	–	> 100 µM	–	> 100 µM	> 100 µM	> 100 µM	> 100 µM	> 100	–	–
CCOc1ccccc1N=Nc1ccc2oc(=O)c(C(C)=O)cc2c1	–	> 100 µM	> 100 µM	> 100 µM	> 100 µM	> 100	> 100 µM	–	–	–	–	–	–
Nc1nc2c(N)cc(C(F)(F)F)cc2nc1-c1ccccc1	> 100 µM	> 100 µM	> 100 µM	> 100 µM	> 100 µM	> 100	> 100 µM	–	–	–	–	–	–
O=C(NCCN1CCCCC1)c1ccc(Br)cc1	> 100 µM	> 100 µM	> 100 µM	> 100 µM	–	> 100	> 100 µM	> 100 µM	> 100 µM	> 100 µM	> 100	–	–
CC(C)[C@@H]1CC[C@@H](C)C[C@H]1OC(=O)c1c2n(c3ccccc13)C[C@H]1OC(C)(C)O[C@@H]21	> 100 µM	32.5 µM	> 100 µM	> 100 µM	–	> 100	> 100 µM	> 100 µM	> 100 µM	> 100 µM	> 100	–	–
O=Cc1c[nH]c2c(=O)[nH]cnc12	> 100 µM	–	> 100 µM	> 100 µM	–	> 100	> 100 µM	–	–	–	–	–	–
CC(C)N(C(=O)C12C3C4C1C1C2C3C41C#N)C(C)C (centres undefined)	> 100 µM	> 100 µM	> 100 µM	> 59 µM	> 100 µM	> 100	> 100 µM	–	–	–	–	–	–
CC1=CC2C(C=C1)S(=O)(=O)N1CC21c1ccccc1 (centres undefined)	> 100 µM	> 100 µM	> 100 µM	> 100 µM	> 100 µM	> 100	> 100 µM	–	–	–	–	–	–
O=c1[nH]/c(=C/c2ccc3c(c2)OCO3)c(=O)[nH]/c1=C/c1ccc2c(c1)OCO2	> 10 µM	> 10 µM	> 10 µM	–	> 10 µM	> 10	> 10 µM	> 10 µM	> 10 µM	> 10 µM	> 10	–	–
O=C(Cc1ccccc1)NN1C(=O)C(Cl)C1c1ccccc1Cl (centres undefined)	> 100 µM	> 100 µM	> 100 µM	> 100 µM	> 100 µM	> 100	> 100 µM	–	–	–	–	–	–
CC1=CC(=O)CC2(C)CCC(C(C)CC(=O)CC(C)C)CC12OO (centres undefined)	30.8 µM and 31.4 µM	31.4 µM and 33.1 µM	32.4 µM and 30.1 µM	74.7 µM and 17.4 µM	28.9 µM and 30 µM	–	28.5 µM and 32.5 µM	56.6 µM and 81.2 µM	34.7 µM and 33.4 µM	29.1 µM and 27.3 µM	–	–	–
FC(F)(F)c1ccccc1C1SCC2=Nc3ccccc3CN21 (centres undefined)	–	> 100 µM	24.6 µM	66.2 µM	22.6 µM	23.1	58.2 µM	35.7 µM	> 100 µM	27.9 µM	38.4	–	–
